One may read the IC50 as the midpoint of a concentration-inhibition curve. Low readings indicate greater potency, high ones weaker potency.

The target of this experiment is CDK2 (UniProt P24941). Nature of the experiment: Enzyme Assay.
In turn, `CCCCSc1cc(=O)c2c(O)cc(O)c([C@H]3CCN(C)C[C@H]3O)c2o1` had a half-inhibitory concentration (IC50) below 20 µM.

`CN1CC[C@H](c2c(O)cc(O)c3c(=O)cc(Sc4ccccc4)oc23)[C@H](O)C1` gave an IC50 below 20 µM.

Consider `CC(=O)NCCSc1cc(=O)c2c(O)cc(O)c(C3CCN(C)CC3O)c2o1` (configuration not stated), for which the concentration for half-maximal inhibition (IC50) is below 20 µM.

Consider `COc1ccc(Sc2cc(=O)c3c(O)cc(O)c(C4CCN(C)CC4O)c3o2)cc1` (configuration not stated), for which the IC50 was below 20 µM.

With `COc1ccc(Sc2cc(=O)c3c(O)cc(O)c([C@H]4CCN(C)C[C@H]4O)c3o2)cc1`, the half-inhibitory concentration (IC50) was below 20 µM.

Regarding `COc1ccc(CSc2cc(=O)c3c(O)cc(O)c(C4CCN(C)CC4O)c3o2)cc1` (configuration not stated), the half-inhibitory concentration (IC50) is below 20 µM.

`Cc1ccc(Sc2cc(=O)c3c(O)cc(O)c(C4CCN(C)CC4O)c3o2)cc1C` (configuration not stated): the IC50 was below 20 µM.

The molecule `CN1CCC(c2c(O)cc(O)c3c(=O)cc(SCCO)oc23)C(O)C1` (configuration not stated) showed a half-inhibitory concentration (IC50) below 20 µM.

Turning to `CN1CCC(c2c(O)cc(O)c3c(=O)cc(Sc4ccc(OC(F)(F)F)cc4)oc23)C(O)C1` (configuration not stated), the concentration for half-maximal inhibition (IC50) is below 20 µM.

`CN1CC[C@H](c2c(O)cc(O)c3c(=O)cc(Oc4ccccc4)oc23)[C@H](O)C1` registered a half-inhibitory concentration (IC50) below 20 µM.

In the case of `COc1ccc(CSc2cc(=O)c3c(O)cc(O)c([C@H]4CCN(C)C[C@H]4O)c3o2)cc1`, the IC50 is below 20 µM.

On to `CCc1ccc(Sc2cc(=O)c3c(O)cc(O)c(C4CCN(C)CC4O)c3o2)cc1` (configuration not stated), for which the concentration for half-maximal inhibition (IC50) was below 20 µM.

The molecule `CN1CC[C@H](c2c(O)cc(O)c3c(=O)cc(SCCO)oc23)[C@H](O)C1` registered an IC50 below 20 µM.

In turn, `CCSc1cc(=O)c2c(O)cc(O)c([C@H]3CCN(C)C[C@H]3O)c2o1` showed a half-maximal inhibitory concentration (IC50) below 20 µM.

Regarding `CN1CCC(c2c(O)cc(O)c3c(=O)cc(SCc4ccc(C(C)(C)C)cc4)oc23)C(O)C1` (configuration not stated), the IC50 was below 20 µM.

Take `COC(=O)CCSc1cc(=O)c2c(O)cc(O)c([C@H]3CCN(C)C[C@H]3O)c2o1`: the IC50 is below 20 µM.

As to `CCSc1cc(=O)c2c(O)cc(OC)c([C@H]3CCN(C)C[C@H]3O)c2o1`, the half-maximal inhibitory concentration (IC50) is below 20 µM.

For `CN1CCC(c2c(O)cc(O)c3c(=O)cc(Sc4ccccc4Cl)oc23)C(O)C1` (configuration not stated), the 50% inhibitory concentration (IC50) was below 20 µM.

In the case of `CN1CC[C@H](c2c(O)cc(O)c3c(=O)cc(Sc4ccccc4Cl)oc23)[C@H](O)C1`, the IC50 was below 20 µM.

`CC(=O)NCCSc1cc(=O)c2c(O)cc(O)c([C@H]3CCN(C)C[C@H]3O)c2o1` displayed an IC50 below 20 µM.

`CN1CCC(c2c(O)cc(O)c3c(=O)cc(Sc4ccc(C(C)(C)C)cc4)oc23)C(O)C1` (configuration not stated) returned an IC50 below 20 µM.

Molecule `CN1CC[C@H](c2c(O)cc(O)c3c(=O)cc(SCc4ccccc4)oc23)[C@H](O)C1` yielded an IC50 below 20 µM.

These data come from the Kinase Knowledgebase extract (Sharma et al. 2016).
